Assay results from patent US20150352075A1, “Treatment of Alzheimer's and Cognitive Impairment With Andrographolides” (INNOBIOSCIENCE, LLC, priority 2013, published 2015).

Assays:
GSK-3β = test: Immunoblot of GSK-3β phosphorylation state and β-catenin in Wt hippocampal slices; assay type: cell-based, mice
Experimental: The hippocampus and cortex of treated or control transgenic mice were dissected on ice and immediately processed has detailed previously (Toledo & Inestrosa 2010). Briefly, hippocampal and cortical tissues were homogenized in RIPA buffer (10 mM Tris-Cl, pH 7.4, EDTA 5 mM, 1% NP-40, 1% sodium deoxycholate, and 1% SDS) supplemented with a protease inhibitor mixture and phosphatase inhibitors (25 mMNaF, 100 mM Na3VO4 and 30 μM Na4P2O7) using a Potter homogenizator and then passed sequentially through different caliber syringes. Protein samples were centrifuged at 14000 rpm at 4° C. twice for 15 min Protein concentrations were determined using the BCA Protein Assay Kit (Pierce). Samples were resolved by SDS-PAGE followed by immunoblotting on PVDF membranes. Western blot assays were carried out as previously described (Inestrosa et al 2013; Toledo & Inestrosa 2010).
Hippocampal slices were prepared according to standard procedures previously described (Cerpa et al 2010; VarelaNallar et al 2010). Briefly, transverse slices (350 μm) from the dorsal hippocampus were cut under cold artificial cerebrospinal fluid (ACSF, in mM: 124 NaCl, […], 10 D-glucose, 2.69 KCl, 1.25 KH2PO4 2.5 CaCl2, 1.3 MgSO4, y 2.60 NaHPO4) using a V ibratome (Leica VT 1000s, Germany) and incubated in ACSF for 1 h at room temperature. In all experiments, 10 μM picrotoxin (PTX) was added to suppress inhibitory GABAA transmission (Cuitino et al 2010). Slices were transferred to an experimental chamber (2 ml), superfused (3 ml/min, at 20-22° C.) with gassed ACSF and visualized by trans-illumination with a binocular microscope (MSZ-10, Nikon, Melville, N.Y.). […] The paired pulse facilitation index was calculated by ((R2−R1)/R1), where R1 and R2 were the peak amplitudes of the first and second fEPSP respectively. […] Evoked postsynaptic responses were analyzed off-line, using an analysis software (pClampfit, Molecular Devices), which allowed visual detection of events, computing only those events that exceeded and arbitrary threshold.

[1] = tested on: Wnt/β-catenin pathway in hippocampal slices; test: Wnt pathway mechanism in hippocampal slices (sFRP, Dkk-1, Dvl-3 mobility shift, time course); assay type: cell-based, mice
Experimental: Slice preparation. […] Transverse slices (250-300 μm) from the dorsal hippocampus were cut under oxygen-saturated cold artificial cerebrospinal fluid using a Vibroslice microtome (VSL, World Precision Instruments, Inc WPI, Sarasota, Fla.). After obtained, slices were incubated in ACSF for at least than one hour at room temperature, in order to stabilize activity. In every moment during dissection, slicing and experimentation slices were oxygenated with 95% oxygen-5% carbon dioxide.
Briefly, tissues were homogenized in RIPA buffer (10 mM Tris-Cl, pH 7.4, EDTA 5 mM, 1% NP-40, 1% sodium deoxycholate, and 1% SDS) supplemented with a protease inhibitor mixture (1 mM PMSF, 2 μg/mL aprotinin, 1 μg/mL pepstatin and 10 μg/mL benzamidine) and phosphatase inhibitors (25 mMNaF, 100 mM Na3VO4, 1 mM EDTA and 30 μM Na4P207) using a Potter homogenizator and then passed sequentially through different caliber syringes. […] Protein concentration was determined using the BCA Protein Assay Kit (Pierce). Samples were resolved by […] 10% SDS-PAGE and transferred to a PVDF membrane. The reactions were followed by incubation with anti-mouse, anti-goat or anti-rabbit IgG peroxidase conjugated (Pierce, Rockford, Ill.) and developed using an ECL kit (Western Lightning Plus ECL, PerkinElmer).

[2] = tested on: APPswe/PS-1 double transgenic mice; test: LTP by TBS in hippocampal CA1 slices from treated transgenic mice; assay type: in vivo; conditions: slices from both sets (7- and 12-month-old) of treated APPswe/PS-1 mice
[3] = Wt hippocampal slices, 10 μM ANDRO for 1 hr (FIG. 5)

C=C1CC[C@@H]2C(C)(CO)C(O)CC[C@@]2(C)C1C/C=C1/C(=O)OCC1O (stereo in doubt) [ANDRO, 3-(2-(Decahydro-6-hydroxy-5-(hydroxymethyl)-5,8a-dimethyl-2-methylenenaphthyl)ethylidene)dihydro-4-hydroxyfuran-2(3H)-one]
levels of β-catenin (GSK-3β; Wt hippocampal slices incubated with ANDRO): increase in the levels of β-catenin | active form of GSK-3β (Tyr-216 phosphorylation) (GSK-3β; [3]): reduction of the active form (Tyr-216) | inactive form of GSK-3β (Ser-9 phosphorylation) (GSK-3β; [3]): increase in the levels of the inactive form of GSK-3P (Ser-9) | speed of increase in GSK3β pSer-9 and decrease in pTyr-216 ([1]; compared to Wnt-3a treatment): faster | mobility shift (phosphorylation) of Dvl-3 ([1]; hippocampal slices, 1 h, western blot): does not induce a mobility shift of Dvl-3 | time at which total levels of β-catenin increased ([1]; slices from 2 month-old wild-type mice, 5 μM ANDRO, Wnt3a conditioned medium or 10 μM 6-B10): 15 min | LTP induction in CA3-CA1 transmission [2]: have the property to induce a LTP that is maintained for 1 h
